{"source": "patent US12716890B2", "about": "“Macro tissue explant, methods and uses therefor” (Massachusetts Institute of Technology, priority 2017, dated 2026)", "key": {"[1]": {"test_system": "intestinal tissue explant", "assay_type": "in vitro ADME, pigs", "description": "To assemble the intestinal tissue explant system, freshly isolated intestinal tissue from the jejunum was prepared according to the described tissue dissection procedure and mounted on the manufactured interface design with a generic 96 well plate as a receiver plate (Corning® 96 well plates, clear bottom, Corning) or a UV transparent plate (Corning® 96-well UV Plates, Corning). The jejunum was identified as the region of the small intestine approximately 50 cm after the pylorus. The difference between the jejunum and ileum was determined based on anatomical location, the structural differences of the tissue, differences in blood supply, and fat deposition as well as the presence of lymphoid tissue. For the system in 384-well format, a 384 microplate with glass bottom (Greiner Sensoplate™ glass bottom multiwall plates, Sigma) were used. The tissue was then cultured in this system according to the described cultivation protocol for specific ex vivo cultivation time periods. Intestinal perfusion experiments using the system were conducted only once after 24 hours of ex vivo cultivation unless otherwise noted.\nFor perfusion experiments the following set up was used: Formulation samples were prepared using a liquid handling station (Evo 150 liquid handling deck, Tecan), an automated dispenser (EL406 Combination Washer Dispenser, BioTek Instruments) was used to fill receiver 96 well plates, a microplate reader (Infinite® M1000 PRO, Tecan) was then used for spectrophotometric analysis. Specifically, formulation samples were prepared following a protocol to mix the pre-pared excipient plate 10 times, pipette the appropriate amount of excipient and dispense into a 96-well plate with the appropriate amount of compound already it in. The excipient/compound formulations were then mixed 60 times and then the appropriate amount was pipetted and dispensed onto the tissue explant. All experiments, including sample incubation, were performed at room temperature. […]"}, "[2]": {"experiment": "Pharmacokinetic validation in vivo, formulation delivered to duodenum, oxytocin serum ELISA", "details": "female, Yorkshire, pig, po, pigs, formulation delivered directly to the duodenum, read-out: bioavailability of oxytocin (absolute / average oral)", "description": "All animal procedures were conducted in accordance with protocols approved by the Massachusetts Institute of Technology Committee on Animal Care. For tissue experiments, fresh tissue was obtained from local abattoirs within 20 minutes of euthanization.\nPharmacokinetic validation was performed in vivo. Female Yorkshire pigs between 45 and 50 kg in weight were used. Before every experiment, the animals were fasted overnight and on the day of the procedure, the morning feed was held. The animals were sedated with an intramuscular injection of Telazol (tileramine/zolazepam) 5 mg/kg, xylazine 2 mg/kg and atropine 0.04 mg/kg. The duodenum was accessed endoscopically and the formulation directly delivered to the duodenum. Serial blood sampling from the peripheral veins was performed for quantification of oxytocin. For oxytocin serum quantification, an Oxytocin ELISA kit (Cat. no. ab133050, Abcam) was used according to the manufacturer's protocol. […] To investigate the mechanism of absorption enhancement and to analyze potential local effects of the formulation on the small intestine histologically, a surgical procedure coupled with custom-made devices was developed, that enabled controlled exposure of the formulation on a defined area of the intestinal tissue. E-cadherin stained sections of biopsy samples were used to analyze the disruption of cell-cell adhesions."}, "MDR-1": {"target": "T1, MDR-1 (Sus scrofa, UniProt K7GMM7)", "T1 construct": "from tissue; host or cells: pig small intestine explant, cultured ex vivo", "T1 sequence (K7GMM7 1-1248)": "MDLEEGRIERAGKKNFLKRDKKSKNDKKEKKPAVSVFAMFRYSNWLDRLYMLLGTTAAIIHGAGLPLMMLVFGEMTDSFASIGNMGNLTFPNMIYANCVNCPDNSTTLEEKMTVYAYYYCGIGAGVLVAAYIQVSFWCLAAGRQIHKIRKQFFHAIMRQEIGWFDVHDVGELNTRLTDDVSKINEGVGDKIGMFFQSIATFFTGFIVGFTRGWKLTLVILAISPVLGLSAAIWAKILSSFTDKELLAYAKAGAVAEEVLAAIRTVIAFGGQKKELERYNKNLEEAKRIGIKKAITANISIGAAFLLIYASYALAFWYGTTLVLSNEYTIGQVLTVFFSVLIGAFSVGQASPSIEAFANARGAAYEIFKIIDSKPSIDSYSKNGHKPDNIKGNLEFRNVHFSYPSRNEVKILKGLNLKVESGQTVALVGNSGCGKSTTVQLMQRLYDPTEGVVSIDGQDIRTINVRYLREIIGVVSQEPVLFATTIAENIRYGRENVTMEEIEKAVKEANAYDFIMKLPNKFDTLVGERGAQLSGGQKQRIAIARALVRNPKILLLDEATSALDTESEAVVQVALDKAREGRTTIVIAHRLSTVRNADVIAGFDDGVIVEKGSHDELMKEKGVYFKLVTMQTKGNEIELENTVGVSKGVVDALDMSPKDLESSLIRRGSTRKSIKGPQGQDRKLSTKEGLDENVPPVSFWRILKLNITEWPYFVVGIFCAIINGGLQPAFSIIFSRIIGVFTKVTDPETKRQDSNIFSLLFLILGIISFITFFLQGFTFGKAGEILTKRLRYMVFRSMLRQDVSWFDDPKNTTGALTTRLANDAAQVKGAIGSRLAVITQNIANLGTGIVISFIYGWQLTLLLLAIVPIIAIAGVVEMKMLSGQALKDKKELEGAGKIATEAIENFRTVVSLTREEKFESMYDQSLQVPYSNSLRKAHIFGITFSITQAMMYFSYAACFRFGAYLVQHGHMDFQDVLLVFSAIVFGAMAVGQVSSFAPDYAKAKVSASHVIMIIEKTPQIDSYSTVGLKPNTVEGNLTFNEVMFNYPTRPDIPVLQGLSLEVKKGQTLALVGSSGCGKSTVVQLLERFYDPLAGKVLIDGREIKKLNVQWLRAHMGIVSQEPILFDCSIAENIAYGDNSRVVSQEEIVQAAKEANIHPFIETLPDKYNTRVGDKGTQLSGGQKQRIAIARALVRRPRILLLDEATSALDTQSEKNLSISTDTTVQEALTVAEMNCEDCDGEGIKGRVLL", "experiment": "Perfusion of substrate through siRNA-transfected intestinal tissue explant", "assay_type": "in vitro ADME, pigs", "experimental": "Specifically, siRNA was delivered to tissue explants using ultrasound by applying 5 second intervals for 1 minute for 40 kHz generated using a separate ultrasound generator (Sonics and Materials, Inc.) and a custom made 96 tip probe. The following siRNAs at concentrations of 1 μm in deionized water were used: Silencer® Select Pre-Designed siRNA (siRNA ID: s3846, Gene Symbol: CYP3A4), Silencer® Select Pre-Designed siRNA (siRNA ID: s10419, Gene Symbol: ABCB1), Silencer® Select Negative Control No. 1 siRNA."}, "[3]": {"test_system": "gastrointestinal tissue explants derived from either the esophagus, stomach or small intestine", "experimental": "To determine responsiveness of the intestinal tissue explant to toxins, a resazurin-based viability analysis was conducted in various segments of the gastrointestinal tract after exposure to chemicals for a 24 hour time period. Resazurin is an oxidation-reduction indicator and established viability assay for mammalian cells. […] Tissue was incubated in multiwell plates containing media in the receiver chamber and various chemicals at different concentrations in PBS in the donor chamber. After 24 hours viability was measured by resazurin-based viability analysis."}, "GLP-1 (7-36)": {"test_system": "GLP-1 (7-36)", "experiment": "GLP-1 stimulation of intestinal tissue explant, ELISA of GLP-1 (7-36)", "assay_type": "cell-based, pigs", "details": "varying doses for 24 hours", "description": "As determined in Example 1, the intestinal tissue explant comprises endocrine cells, determined by the expression of […] and Glucagon-like peptide-1 (GLP-1). Therefore, the ability of the intestinal tissue explant to respond to known GLP-1 stimulants was investigated. Specifically, acetylcholine, LiCl, and glucose were added to the intestinal tissue explant at varying doses for 24 hours, then cells within the apical side of the intestinal epithelium were isolated. The concentration of active cleaved peptide of GLP-1 (GLP-1 (7-36)) of these cell lysates was determined by ELISA analysis. […] The stimulation of GLP-1 secretion by acetylcholine, LiCl and glucose, which act through different pathways, indicated these pathways were intact in the intestinal tissue explant. The Acetylcholine and LiCl act as non-nutrient stimulators of GLP-1 that are reported to simulate GLP-1 activity via neuronal regulation. Glucose triggers GLP-1 activity via nutrient-based pathways."}}, "note": "Read-outs that look alike come from different tables or passages of the source. Numbered stars: 1 amine (or outer) side, 2 acyl side, 3 side chain; on linkers, the order of the positions; unused ones are H or OH. Bridge positions count the residues as written; N and C are the ends. Peptide text beside a SMILES is read from it. X1 = O=C(CCC[*:2])[*:1]", "data": [{"molecule": "Polyethyleneimine [Polyethyleneimine (800 Da, end-capped)]", "values": [{"measurement": "intestinal perfusion of oxytocin formulated with excipient", "setting": "[1]", "value": "increased the intestinal perfusion of oxytocin several fold"}]}, {"molecule": "CC[C@H](C)[C@@H]1NC(=O)[C@H](Cc2ccc(O)cc2)NC(=O)[C@@H](N)CSSC[C@@H](C(=O)N2CCC[C@H]2C(=O)N[C@@H](CC(C)C)C(=O)NCC(N)=O)NC(=O)[C@H](CC(N)=O)NC(=O)[C@H](CCC(N)=O)NC1=O", "note": "[oxytocin]", "values": [{"measurement": "bioavailability", "setting": "[2]", "value": 0.64, "unit": "%"}]}, {"molecule": "CNC(=C[N+](=O)[O-])NCCSCc1ccc(CN(C)C)o1", "note": "[ranitidine]", "values": [{"measurement": "perfusion after knock-down of MDR-1", "setting": "MDR-1", "value": "significant change of perfusion"}]}, {"molecule": "C=O", "note": "[formalin]", "values": [{"measurement": "tissue viability", "setting": "[3]; 24 hours exposure, different concentrations in PBS, esophagus, stomach or small intestine explants", "value": "dose-dependent chemically induced decrease in tissue viability"}]}, {"molecule": "CCO", "note": "[ethanol]", "values": [{"measurement": "tissue viability", "setting": "[3]", "value": "dose-dependent chemically induced decrease in tissue viability"}]}, {"molecule": "[Cl-].[Li+]", "note": "[LiCl]", "values": [{"measurement": "concentration of GLP-1 (7-36) in cell lysates", "setting": "GLP-1 (7-36)", "value": "increased concentration so of GLP-1 (7-36) in a dose-dependent manner"}]}, {"molecule": "CO", "note": "[methanol]", "values": [{"measurement": "tissue viability", "setting": "[3]", "value": "dose-dependent chemically induced decrease in tissue viability"}]}, {"molecule": "Alexa488-insulin: human insulin (recombinant) labeled with Alexa Fluor 488 NHS Ester", "values": [{"measurement": "intestinal absorption/perfusion of model drug formulated with polyethyleneimine (800 Da, end-capped)", "setting": "[1]", "value": "increase the intestinal absorption to various degrees"}]}, {"molecule": "CC[C@H](C)[C@@H]1NC(=O)[C@H](Cc2ccc(OC)cc2)NC(=O)CCCSC[C@@H](C(=O)N2CCC[C@H]2C(=O)N[C@@H](CC(C)C)C(=O)NCC(N)=O)NC(=O)[C@H](CC(N)=O)NC(=O)[C@H](CCC(N)=O)NC1=O", "note": "[carbetocin] (Y(Me)IQNCPLG-NH2; linker N-5 via X1)", "values": [{"measurement": "intestinal absorption/perfusion of model drug formulated with polyethyleneimine (800 Da, end-capped)", "setting": "[1]", "value": "limited increase in intestinal perfusion"}]}]}
